From patent publication US10865208B2, “ATG7 inhibitors and the uses thereof” (Millennium Pharmaceuticals, Inc., priority 2016, dated 2020)

Target: recombinant human His-ATG7 enzyme (Homo sapiens (Human), UniProt O95352)
Test: ATG7 Enzyme Assay (HTRF/FRET, ATG3-GST and Flag-Gabarap)
Type: biochemical
Conditions: for inhibition at 0.069 µM: Concentration 0.069 μM; for inhibition at 0.069 µM / inhibition at 0.111 µM / inhibition at 0.123 µM: read-out: Percent Inhibition; for inhibition at 0.111 µM: Concentration 0.111 μM; for inhibition at 0.123 µM: Concentration 0.123 μM
Summary of the method: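 HTRF read-out after 2 h at 24° C, using Eu-cryptate anti-Flag and XL-APC anti-GST antibodies in an EDTA stop buffer. The preceding 105 min, 24° C reaction (pH 7.5) held 10 μM ATP, 5 nM each ATG3-GST and Flag-Gabarap, and 0.15 nM human His-ATG7. Values are IC50 or percent inhibition at one concentration.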

Chain of recombinant human His-ATG7 enzyme (O95352 whole entry): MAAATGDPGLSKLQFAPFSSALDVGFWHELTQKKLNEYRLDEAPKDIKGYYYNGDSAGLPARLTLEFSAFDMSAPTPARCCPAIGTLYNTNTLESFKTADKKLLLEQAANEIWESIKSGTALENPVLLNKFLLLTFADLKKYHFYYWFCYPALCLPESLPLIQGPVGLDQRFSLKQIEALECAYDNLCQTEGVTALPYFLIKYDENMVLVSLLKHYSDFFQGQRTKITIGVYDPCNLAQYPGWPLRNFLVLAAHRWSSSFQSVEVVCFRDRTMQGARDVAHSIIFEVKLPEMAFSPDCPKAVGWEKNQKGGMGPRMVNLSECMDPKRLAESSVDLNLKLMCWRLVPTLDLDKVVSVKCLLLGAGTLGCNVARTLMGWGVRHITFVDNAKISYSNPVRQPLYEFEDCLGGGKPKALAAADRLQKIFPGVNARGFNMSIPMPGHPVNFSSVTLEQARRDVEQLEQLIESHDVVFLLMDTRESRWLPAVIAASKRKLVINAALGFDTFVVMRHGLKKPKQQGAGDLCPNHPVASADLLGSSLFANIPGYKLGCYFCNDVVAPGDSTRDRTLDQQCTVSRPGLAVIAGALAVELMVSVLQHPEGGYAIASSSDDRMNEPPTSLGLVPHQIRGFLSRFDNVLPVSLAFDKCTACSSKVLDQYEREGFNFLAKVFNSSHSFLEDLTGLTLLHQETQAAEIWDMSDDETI

Nc1ncnc2c1c(-c1ccccc1)nn2[C@@H]1O[C@H](COS(N)(=O)=O)[C@@H](O)[C@H]1O [Compound I-49, [(2R,3S,4R,5R)-5-(4-amino-3-phenyl-1H-pyrazolo[3,4-d]pyrimidin-1-yl)-3,4-dihydroxytetrahydrofuran-2-yl]methyl Sulfamate]
IC50: > 500 nM
inhibition at 0.069 µM: 7%

Nc1ncnc2c1c(OC(F)F)nn2[C@@H]1O[C@H](COS(N)(=O)=O)[C@@H](O)[C@@H]1F [Compound I-99, {(2R,3R,4S,5R)-5-[4-amino-3-(difluoromethoxy)-1H-pyrazolo[3,4-d]pyrimidin-1-yl]-4-fluoro-3-hydroxytetrahydrofuran-2-yl}methyl Sulfamate]
IC50: 20 to 50 nM
inhibition at 0.111 µM: 70%

Nc1ncnc2c1c(Sc1ccccc1F)nn2[C@H]1C[C@H](O)[C@H](COS(N)(=O)=O)O1 [Compound I-215, [(2S,3S,5R)-5-{4-amino-3-[(2-fluorophenyl)sulfanyl]-1H-pyrazolo[3,4-d]pyrimidin-1-yl}-3-hydroxytetrahydrofuran-2-yl]methyl sulfamate]
IC50: 100 to 500 nM
inhibition at 0.111 µM: 45%

COCCSc1nn([C@@H]2O[C@H](COS(N)(=O)=O)[C@@H](O)[C@@H]2F)c2ncnc(N)c12 [Compound I-154, [(2R,3R,4S,5R)-5-{4-amino-3-[(2-methoxyethyl)sulfanyl]-1H-pyrazolo[3,4-d]pyrimidin-1-yl}-4-fluoro-3-hydroxytetrahydrofuran-2-yl]methyl sulfamate]
IC50: 50 to 100 nM
inhibition at 0.111 µM: 64%

Nc1ncnc2c1c(SC1CCC1)nn2[C@@H]1O[C@H](COS(N)(=O)=O)[C@@H](O)[C@@H]1F [Compound I-147, {(2R,3R,4S,5R)-5-[4-amino-3-(cyclobutylsulfanyl)-1H-pyrazolo[3,4-d]pyrimidin-1-yl]-4-fluoro-3-hydroxytetrahydrofuran-2-yl}methyl sulfamate]
IC50: < 20 nM
inhibition at 0.111 µM: 89%

COCC#Cc1nn([C@@H]2O[C@H](COS(N)(=O)=O)[C@@H](O)[C@H]2O)c2ncnc(N)c12 [Compound I-11, {(2R,3S,4R,5R)-5-[4-amino-3-(3-methoxyprop-1-yn-1-yl)-1H-pyrazolo[3,4-d]pyrimidin-1-yl]-3,4-dihydroxytetrahydrofuran-2-yl}methyl Sulfamate]
IC50: > 500 nM
inhibition at 0.069 µM: 9%

Nc1ncnc2c1c(Sc1ccccc1F)nn2[C@H]1C[C@H](O)[C@@H](COS(N)(=O)=O)O1 [Compound I-182, [(2R,3S,5R)-5-{4-amino-3-[(2-fluorophenyl)sulfanyl]-1H-pyrazolo[3,4-d]pyrimidin-1-yl}-3-hydroxytetrahydrofuran-2-yl]methyl sulfamate]
IC50: 50 to 100 nM
inhibition at 0.111 µM: 66%

Nc1ncnc2c1c(C(F)(F)F)nn2[C@@H]1O[C@H](COS(N)(=O)=O)[C@@H](O)[C@H]1O [Compound I-10, {(2R,3S,4R,5R)-5-[4-amino-3-(trifluoromethyl)-1H-pyrazolo[3,4-d]pyrimidin-1-yl]-3,4-dihydroxytetrahydrofuran-2-yl}methyl Sulfamate]
IC50: 50 to 100 nM
inhibition at 0.069 µM: 48%

Cn1cc(Sc2nn([C@@H]3O[C@H](COS(N)(=O)=O)[C@@H](O)[C@H]3O)c3ncnc(N)c23)cn1 [Compound I-61, [(2R,3S,4R,5R)-5-{4-amino-3-[(1-methyl-1H-pyrazol-4-yl)sulfanyl]-1H-pyrazolo[3,4-d]pyrimidin-1-yl}-3,4-dihydroxytetrahydrofuran-2-yl]methyl sulfamate]
IC50: 20 to 50 nM
inhibition at 0.123 µM: 83%

Cc1nn([C@@H]2O[C@H](COS(N)(=O)=O)[C@@H](O)[C@H]2O)c2ncnc(N)c12 [Compound I-2, [(2R,3S,4R,5R)-5-(4-amino-3-methyl-1H-pyrazolo[3,4-d]pyrimidin-1-yl)-3,4-dihydroxytetrahydrofuran-2-yl]methyl Sulfamate]
IC50: 100 to 500 nM
inhibition at 0.123 µM: 42%
